According to patent publication US9969766B2, “20(R)-ginsenoside Rg3 polyacylated derivatives, preparation and application thereof” (priority 2014, dated 2018):

Experiments:
[1] = test system: human breast cancer Bcap-37 cells; assay: Human breast cancer Bcap-37 subcutaneous inoculation in nude mice; details: po × 14bid
Text: human breast cancer Bcap-37 model, human lung cancer A549 model, human intestinal cancer LOVO model, human stomach cancer MGC model and human liver cancer QGY model, with tumor cell lines being of the second generation or more, mouse B16 melanoma cell line, mouse Lewis lung cancer model, mouse sarcoma s180 model, all passaged and preserved in Pharmacological Division of Shanghai Institute of Pharmaceutical Industry. 3. Experiment Animals Origins: nude mice, 6-week old, 18-22 g/mouse, provided by Laboratory Animal Center of Chinese Academy of Sciences, Shanghai Branch, with certification No. 2001A032. C57BL/6 mice and Kunming mice, 18-22 g/mouse, provided by Laboratory Animal Center of Chinese Academy of Sciences, Shanghai Branch, with certification SYXK (Shanghai) 2004-0015. Gender: male or female, the same gender for each batch in experiment Animal numbers: 10 mice and 10 nude mice for each of positive control group and test group in experiment, and 20 for negative control group. 4. Experiment Design Dose Settings: doses for 20(R)-ginsenoside Rg3 octo-acetate, 20(R)-ginsenoside Rg3 octo-n-butyrate and 20(R)-ginsenoside Rg3 octo-n-propionate were set as high-dose group (0.3 mg/kg/d), medium-dose group (0.06 mg/kg/d), and low-dose group (0.012 mg/kg/d). Dosage regimen: oral administration, twice daily. human tumor model and cell-inoculated mouse model: po×14 bid; mouse tumor-inoculated model: po×10 bid. Control Trial: negative control group: given with the same volume of 5% CMC-Na as the test group, and the same dosage regimen as the test group. positive control group: […] 5. Experiment Method and Key Steps 5.1 Anti-Tumor Test 5.1.1 Subcutaneous Inoculation Model
Tumor cells of vigorous growth stage were taken under sterile condition and made into cell suspensions of about 1-2×10^7/ml by homogenization, the suspensions were inoculated subcutaneously at 0.2 ml/mouse in host mice and repeated on the next day according to the experiment design, the animals in each group were slaughtered after about three weeks, the tumors were collected and weighed, and the tumor inhibition rates were calculated according to the following equation: tumor inhibition rate %=[(average tumor weight of control group-average tumor weight of treatment group)/average tumor weight of control group]×100%
The same operation was repeated in human tumor xenograft model, except that the feed, packing, cage and contact instruments were all sterilized under high pressure before use and the nude mice were fed in a laminar flow rack. The tumors and tumor-bearing animal weight gains were dynamically measured (tumor size measured using caliper: long diameter/a, short diameter/b, and tumor bulk=a×b^2/2).

[2] = test system: human lung cancer A549 cells; assay: Human lung cancer A549 (subcutaneous inoculation) metastasis model; details: po × 14bid
[3] = test system: human stomach cancer MGC cells; assay: Human stomach cancer MGC in-situ inoculation, survival; details: for Animal body weight (g) Start / Animal body weight (g) end / Average survival (d) X ± SD / Life extension rate T/C × %: po × 14bid
Text: human breast cancer Bcap-37 model, human lung cancer A549 model, human intestinal cancer LOVO model, human stomach cancer MGC model and human liver cancer QGY model, with tumor cell lines being of the second generation or more, mouse B16 melanoma cell line, mouse Lewis lung cancer model, mouse sarcoma s180 model, all passaged and preserved in Pharmacological Division of Shanghai Institute of Pharmaceutical Industry. 3. Experiment Animals Origins: nude mice, 6-week old, 18-22 g/mouse, provided by Laboratory Animal Center of Chinese Academy of Sciences, Shanghai Branch, with certification No. 2001A032. C57BL/6 mice and Kunming mice, 18-22 g/mouse, provided by Laboratory Animal Center of Chinese Academy of Sciences, Shanghai Branch, with certification SYXK (Shanghai) 2004-0015. Gender: male or female, the same gender for each batch in experiment Animal numbers: 10 mice and 10 nude mice for each of positive control group and test group in experiment, and 20 for negative control group. 4. Experiment Design Dose Settings: doses for 20(R)-ginsenoside Rg3 octo-acetate, 20(R)-ginsenoside Rg3 octo-n-butyrate and 20(R)-ginsenoside Rg3 octo-n-propionate were set as high-dose group (0.3 mg/kg/d), medium-dose group (0.06 mg/kg/d), and low-dose group (0.012 mg/kg/d). Dosage regimen: oral administration, twice daily. human tumor model and cell-inoculated mouse model: po×14 bid; mouse tumor-inoculated model: po×10 bid. Control Trial: negative control group: given with the same volume of 5% CMC-Na as the test group, and the same dosage regimen as the test group. positive control group: Cyclophosphamide CTX 30 mg/kg, MMC 2 mg/kg and 5Fu 30 mg/kg by intraperitoneal or intravenous administration, once daily, for seven consecutive days. 5. Experiment Method and Key Steps 5.1 Anti-Tumor Test 5.1.1 Subcutaneous Inoculation Model

Question: Which “Tumor inhibition rate %” value ([1]; 0.012 mg/kg/d) does the source give for CC(=O)OC[C@H]1O[C@@H](OC2CC[C@]3(C)C(CC[C@@]4(C)C3C[C@H](OC(C)=O)C3C([C@@](C)(O)CCC=C(C)C)CC[C@@]34C)C2(C)C)[C@H](OC2O[C@H](COC(C)=O)[C@@H](OC(C)=O)[C@H](OC(C)=O)[C@H]2OC(C)=O)[C@@H](OC(C)=O)[C@@H]1OC(C)=O (stereo partly drawn) [Rg3-octo-acetate, 20 (R)-ginsenoside Rg3 octaacetate] here?
Answer: 47.93%

Question: What about the “Tumor weight (g) X ± SD” value ([1]; 0.012 mg/kg/d) of the same compound?
Answer: 0.672 ± 0.07 g

Question: What about the “Tumor inhibition rate %” value ([1]; 0.06 mg/kg/d) of the same compound?
Answer: 59.69%

Question: What about the “Tumor weight (g) X ± SD” value ([1]; 0.06 mg/kg/d) of the same compound?
Answer: 0.520 ± 0.08 g

Question: What about the “Tumor inhibition rate %” value ([1]; 0.3 mg/kg/d) of the same compound?
Answer: 68.98%

Question: And the “Tumor weight (g) X ± SD” value ([1]; 0.3 mg/kg/d)?
Answer: 0.400 ± 0.09 g

Question: And the Anti-metastasis rate % ([2]; 0.012 mg/kg/d)?
Answer: 49.91%

Question: And the “Lung clone numbers (mice) X ± SD” value ([2]; 0.012 mg/kg/d)?
Answer: 0.96 ± 0.12

Question: What about the Anti-metastasis rate % ([2]; 0.06 mg/kg/d) of the same compound?
Answer: 57.90%

Question: What about the “Lung clone numbers (mice) X ± SD” value ([2]; 0.06 mg/kg/d) of the same compound?
Answer: 0.81 ± 0.15

Question: And the Anti-metastasis rate % ([2]; 0.3 mg/kg/d)?
Answer: 68.52%

Question: What about the “Lung clone numbers (mice) X ± SD” value ([2]; 0.3 mg/kg/d) of the same compound?
Answer: 0.84 ± 0.13

Question: And the “Animal body weight (g) Start” value ([3]; 0.012 mg/kg/d)?
Answer: 19.8 g

Question: What about the “Animal body weight (g) end” value ([3]; 0.012 mg/kg/d) of the same compound?
Answer: 25.4 g

Question: What about the “Average survival (d) X ± SD” value ([3]; 0.012 mg/kg/d) of the same compound?
Answer: 38.84 ± 0.14 days

Question: And the “Life extension rate T/C × %” value ([3]; 0.012 mg/kg/d)?
Answer: 170.56%

Question: What about the “Animal body weight (g) Start” value ([3]; 0.06 mg/kg/d) of the same compound?
Answer: 19.6 g

Question: What about the “Animal body weight (g) end” value ([3]; 0.06 mg/kg/d) of the same compound?
Answer: 24.6 g

Question: What about the “Average survival (d) X ± SD” value ([3]; 0.06 mg/kg/d) of the same compound?
Answer: 41.21 ± 0.11 days

Question: And the “Life extension rate T/C × %” value ([3]; 0.06 mg/kg/d)?
Answer: 180.98%

Question: And the “Animal body weight (g) Start” value ([3]; 0.3 mg/kg/d)?
Answer: 19.7 g

Question: What about the “Animal body weight (g) end” value ([3]; 0.3 mg/kg/d) of the same compound?
Answer: 24.1 g

Question: What about the “Average survival (d) X ± SD” value ([3]; 0.3 mg/kg/d) of the same compound?
Answer: 46.04 ± 0.12 days

Question: And the “Life extension rate T/C × %” value ([3]; 0.3 mg/kg/d)?
Answer: 202.19%

Question: What about the “life-prolonging effect versus positive control group” value ([3]; high-dose groups, summary of Table 7-9: human stomach, intestinal and liver cancer) of the same compound?
Answer: better than the positive control group
